Test results published in patent US8507483B2, “1H-pyrimidin-2-one derivatives, preparation thereof and pharmaceutical use thereof as inhibitors of AKT (PKB) phosphorylation” (Sanofi, priority 2009, dated 2013).

How the values were obtained:
[1] = tested on: AKT protein phosphorylated on serine 473 in PC3 human prostate carcinoma cells; assay: pAKT expression in PC3 cells measured by western blotting (test A); format: cell-based; settings: PC-3, inhibition of AKT Ser473 phosphorylation, 1 to 2 hours incubation, absolute IC50, mean of two experiments
Procedure: (§1) The inhibitory activity of the molecules on AKT phosphorylation is measured either by western blotting using the technique described below, or by the MSD Multi-spot Biomarker detection technique from Meso Scale Discovery also described below.
Study of pAKT expression in PC3 human prostate carcinoma cells measured by western blotting (test A):
This test is based on measuring the expression of the AKT protein phosphorylated on serine 473. The phosphorylation of AKT (pAKT) is measured by western blotting in the PC3 human prostate carcinoma line (ATCC CRL-1435), using an antibody that specifically recognises pAKT-5473.
(§2) On day 1, the PC3 cells are seeded into 6-well plates (TPP, #92006) at the concentration of 0.8×10^6 cells/well in 1800 μl of DMEM medium (DMEM Gibco #11960-044) containing 10% of foetal calf serum (SVF Gibco, #10500-056) and 1% glutamine (L-Glu Gibco #25030-024), and incubated at 37° C., 5% CO2, overnight.
(§3) On day 2, the cells are incubated in the presence or absence of the test products for 1 to 2 hours at 37° C. in the presence of 5% CO2. The molecules, diluted in dimethyl sulphoxide (DMSO Sigma #D2650), are added from a 10-times concentrated stock solution, the final percentage of DMSO being 0.1%. The molecules are tested either at a single concentration of less than or equal to 10 μM, or at increasing concentrations in a range that can extend from less than 1 nM to 10 μM.
After this incubation, the cells are lysed for the preparation of the proteins. After the culture medium has been drawn off, the cells are rinsed with 1 ml of PBS (DPBS Gibco, #14190-094), recovered by scraping in 200 μl of complete HNTG buffer and transferred into a 96-well plate (Greiner #651201), and lysed for 1 h on ice. The HNTG buffer is composed of the following mixture: 50 mM hepes, 150 mM NaCl, 1% triton, 10% glycerol, with extemporaneous addition of one Mini Protease Inhibitor Cocktail tablet (Roche 1836153) and of one Phosphatase Inhibitor Cocktail tablet (Roche 104906837001) per 10 ml of buffer.
The lysate is centrifuged for 10 min at 6000 rpm. 155 μl of supernatant are recovered. 150 μl are incubated for denaturation for 5 min at 95° C. in the presence of 4× NuPAGE LDS Sample Buffer diluted 4-fold (InVitrogen ref NP0007) and of 10× NuPAGE Sample Reducing Agent diluted 10-fold (InVitrogen ref NP0009). These samples are then frozen at −20° C. 5 μl are assayed by the microBCA technique according to the technical bulletin of the MicroBCA Protein Assay Kit (Pierce #23235).
For protein separation, 20 μg of proteins are loaded on to a NU-PAGE 4-12% Bis Tris Gel 12 well (InVitrogen ref NP0322BOX) and the migration is carried out for 1 h 30 in 20×NU-PAGE MOPS SDS Running Buffer diluted 20-fold (InVitrogen ref NP0001), at 150 volts.
The gel is then transferred onto an Invitrolon PVDF membrane (Invitrogen #LC2007) permeabilised beforehand for a few seconds in ethanol (Ethanol Fischer Scientific #E/0600DF/15).
The transfer is carried out in a Biorad tank at 30 volts overnight or at 60 volts for 3 hours, in the presence of 20× NUPAGE Transfer Buffer diluted 20-fold (InVitrogen ref NP0006).
The membrane is then saturated in saturating solution composed of TBS (10× Tris Buffered Saline, Sigma #T5912, diluted 10-fold), 0.1% Tween 20 (Sigma #P5927) and 3% BSA (Bovine Serum Albumin Fraction V, Sigma #A4503) for 6 h after overnight transfer or else for 1 h after transfer for a period of 3 h.
The primary antibodies are diluted to 1/1000th for the anti-phospho AKT-Ser473 antibody (193H2, rabbit monoclonal, cat#4058 from Cell Signaling Technology) Abcam), in saturating solution composed of […], 0.1% Tween 20 and 3% BSA, and then shaken overnight at 4° C.
Two rinses for 5 min in washing solution composed of TBS and 0.1% Tween 20 are carried out before hybridisation of the secondary antibodies. […]

[2] = tested on: AKT protein phosphorylated on serine 473 (P-AKT-S473) in PC3 human prostate carcinoma cells; assay: pAKT expression in PC3 cells measured by MSD Multi-spot Biomarker Detection (Test B); format: cell-based; settings: PC-3, inhibition of AKT Ser473 phosphorylation, 1 to 2 h incubation, MSD sandwich immunoassay, absolute IC50, mean of two experiments
Procedure: as §1
Where appropriate, the activity of the products is translated into approximately IC50, obtained from a dose-response curve of various concentrations tested and representing the dose giving 50% of specific inhibition (absolute IC50). Two independent experiments make it possible to calculate the mean of the IC50s. Study of pAKT expression in PC3 human prostate carcinoma cells measured by the MSD Multi-spot Biomarker Detection technique from Meso Scale Discovery (Test B): This test is based on measuring the expression of the AKT protein phosphorylated on serine 473 (P-AKT-S473), in the PC3 human prostate carcinoma line, by means of the technique based on a sandwich immunoassay using the MSD Multi-spot Biomarker Detection kit from Meso Scale Discovery: phospho-Akt (Ser473) whole cell lysate kit (#K151 CAD) or phospho-Akt (Ser473)/Total Akt whole cell lysate kit (#K151OOD).
The primary antibody specific for P-AKT-5473 (Kit #K151 CAD) is coated onto an electrode in each well of the 96-well plates of the MSD kit: after the addition of a protein lysate to each well, the signal is visualised by adding a secondary detection antibody labelled with an electrochemoluminescent compound. The procedure followed is that described in the kit.
as §2, with “96-well” for “6-well”, “#92096)” for “#92006)”, “35 000” for “0.8×10^6”, “200” for “1800”, “(FCS” for “(SVF”
as §3, with “h” for “hours”, “5% of” for “5%”, “20-times” for “10-times”
After this incubation, the cells are lysed for the preparation of the proteins. For this, after the culture medium has been drawn off, […] of complete Tris Lysis Buffer of the MSD kit containing the protease and phosphatase inhibitor solutions are added to the wells and the cells are lysed for 1 h at 4° C. with shaking At this stage, the plates containing the lysates can be frozen at −20° C. or at −80° C.
The wells of the 96-well plates of the MSD kit are saturated for 1 h at ambient temperature with the blocking solution of the MSD kit. Four washes are carried out with 150 μl of Tris Wash Buffer of the MSD kit. The lysates previously prepared are transferred into the 96-well multi-spot plates of the MSD kit and incubated for 1 h at ambient temperature, with shaking Four washes are carried out with 150 μl of Tris Wash Buffer of the MSD kit. 25 μl of the MSD sulpho-tag detection antibody solution are added to the wells and incubated for 1 h at ambient temperature, with shaking Four washes are carried out with 150 μl of Tris Wash Buffer of the MSD kit. 150 μl of Read Buffer of the MSD kit are added to the wells and the plates are read immediately on the 512400 instrument from Meso Scale Discovery.
The instrument measures a signal for each well. Wells without cells and containing the lysis buffer serve to determine the background noise that will be subtracted from all the measurements (min). The wells containing cells in the absence of product and in the presence of 0.1% DMSO are considered to be the 100% signal (max). The percentage inhibition is calculated for each concentration of test product according to the following formula: (1−((test−min)/(max−min)))×100. […]

| Compound | IC50 [1] [nM] | IC50 [2] [nM] |
| --- | --- | --- |
| O=c1cc(N2CCOCC2)nc(Cc2nc3ccc(F)cc3[nH]2)[nH]1 [Example 1, 2-[(5-fluoro-1H-benzimidazol-2-yl)methyl]-6-(morpholin-4-yl)pyrimidin-4(3H)-one] | 298 | 41 |
| O=c1cc(N2CCOCC2)nc(Cc2nc3ccc(Br)cc3[nH]2)[nH]1 [Example 3, 2-[(5-bromo-1H-benzimidazol-2-yl)methyl]-6-(morpholin-4-yl)pyrimidin-4(3H)-one] | 1340 | 85 |
| O=c1cc(N2CCOCC2)nc(Cc2nc3ccc(F)cc3o2)[nH]1 [Example 6, 2-[(6-fluoro-1,3-benzoxazol-2-yl)methyl]-6-(morpholin-4-yl)pyrimidin-4(3H)-one] | 380 | 49 |
| O=c1cc(N2CCOCC2)nc(Cc2nc3cc(F)ccc3o2)[nH]1 [Example 7, 2-[(5-fluoro-1,3-benzoxazol-2-yl)methyl]-6-(morpholin-4-yl)pyrimidin-4(3H)-one] | 903 | 26 |
| Cn1c(Cc2nc(N3CCOCC3)cc(=O)[nH]2)nc2ccccc21 [Example 10, 2-[(1-methyl-1H-benzimidazol-2-yl)methyl]-6-(morpholin-4-yl)pyrimidin-4(3H)-one] | 713 | 27 |
